The source made the active and inactive calls. No rule for the calls is given here.
Test system: CCRIS mutagenicity, Ames/micronucleus/aberration tests
Test: CCRIS mutagenicity studies
[1] = Test System: AMES SALMONELLA TYPHIMURIUM, Strain/Indicator: TA98, Metabolic Activation: NONE, Method: STANDARD PLATE
[2] = Test System: AMES SALMONELLA TYPHIMURIUM, Strain/Indicator: TA98, Metabolic Activation: RAT, LIVER, S-9, AROCLOR 1254, Method: STANDARD PLATE
[3] = Test System: AMES SALMONELLA TYPHIMURIUM, Strain/Indicator: TA100, Metabolic Activation: NONE, Method: STANDARD PLATE
[4] = Test System: AMES SALMONELLA TYPHIMURIUM, Strain/Indicator: TA100, Metabolic Activation: RAT, LIVER, S-9, AROCLOR 1254, Method: STANDARD PLATE
[5] = Test System: AMES SALMONELLA TYPHIMURIUM, Strain/Indicator: TA1535, Metabolic Activation: NONE, Method: STANDARD PLATE
[6] = Test System: AMES SALMONELLA TYPHIMURIUM, Strain/Indicator: TA1535, Metabolic Activation: RAT, LIVER, S-9, AROCLOR 1254, Method: STANDARD PLATE
[7] = Test System: AMES SALMONELLA TYPHIMURIUM, Strain/Indicator: TA1537, Metabolic Activation: NONE, Method: STANDARD PLATE
[8] = Test System: AMES SALMONELLA TYPHIMURIUM, Strain/Indicator: TA1537, Metabolic Activation: RAT, LIVER, S-9, AROCLOR 1254, Method: STANDARD PLATE
[9] = Test System: AMES SALMONELLA TYPHIMURIUM, Strain/Indicator: TA1538, Metabolic Activation: NONE, Method: STANDARD PLATE
[10] = Test System: AMES SALMONELLA TYPHIMURIUM, Strain/Indicator: TA1538, Metabolic Activation: RAT, LIVER, S-9, AROCLOR 1254, Method: STANDARD PLATE
[11] = Test System: AMES SALMONELLA TYPHIMURIUM, Strain/Indicator: TA98, Metabolic Activation: HAMSTER, LIVER, S-9, AROCLOR 1254 (10%), Method: PREINCUBATION
[12] = Test System: AMES SALMONELLA TYPHIMURIUM, Strain/Indicator: TA98, Metabolic Activation: NONE, Method: PREINCUBATION
[13] = Test System: AMES SALMONELLA TYPHIMURIUM, Strain/Indicator: TA98, Metabolic Activation: RAT, LIVER, S-9, AROCLOR 1254 (10%), Method: PREINCUBATION
[14] = Test System: AMES SALMONELLA TYPHIMURIUM, Strain/Indicator: TA100, Metabolic Activation: HAMSTER, LIVER, S-9, AROCLOR 1254 (10%), Method: PREINCUBATION
[15] = Test System: AMES SALMONELLA TYPHIMURIUM, Strain/Indicator: TA100, Metabolic Activation: NONE, Method: PREINCUBATION
[16] = Test System: AMES SALMONELLA TYPHIMURIUM, Strain/Indicator: TA100, Metabolic Activation: RAT, LIVER, S-9, AROCLOR 1254 (10%), Method: PREINCUBATION
[17] = Test System: AMES SALMONELLA TYPHIMURIUM, Strain/Indicator: TA1535, Metabolic Activation: HAMSTER, LIVER, S-9, AROCLOR 1254 (10%), Method: PREINCUBATION
[18] = Test System: AMES SALMONELLA TYPHIMURIUM, Strain/Indicator: TA1535, Metabolic Activation: NONE, Method: PREINCUBATION
[19] = Test System: AMES SALMONELLA TYPHIMURIUM, Strain/Indicator: TA1535, Metabolic Activation: RAT, LIVER, S-9, AROCLOR 1254 (10%), Method: PREINCUBATION
[20] = Test System: AMES SALMONELLA TYPHIMURIUM, Strain/Indicator: TA1537, Metabolic Activation: HAMSTER, LIVER, S-9, AROCLOR 1254 (10%), Method: PREINCUBATION
[21] = Test System: AMES SALMONELLA TYPHIMURIUM, Strain/Indicator: TA1537, Metabolic Activation: NONE, Method: PREINCUBATION
[22] = Test System: AMES SALMONELLA TYPHIMURIUM, Strain/Indicator: TA1537, Metabolic Activation: RAT, LIVER, S-9, AROCLOR 1254 (10%), Method: PREINCUBATION

Measured: mutagenic call

C=CC(=O)OC(C)(C)C
inactive: [1] inactive; negative | [2] inactive; negative | Test System: AMES SALMONELLA TYPHIMURIUM, Strain/Indicator: TA98, Metabolic Activation: RAT, LIVER, S-9, SODIUM PHENOBARBITAL, Method: STANDARD PLATE inactive; negative | [3] inactive; negative | [4] inactive; negative | Test System: AMES SALMONELLA TYPHIMURIUM, Strain/Indicator: TA100, Metabolic Activation: RAT, LIVER, S-9, SODIUM PHENOBARBITAL, Method: STANDARD PLATE inactive; negative | [5] inactive; negative | [6] inactive; negative | Test System: AMES SALMONELLA TYPHIMURIUM, Strain/Indicator: TA1535, Metabolic Activation: RAT, LIVER, S-9, SODIUM PHENOBARBITAL, Method: STANDARD PLATE inactive; negative | [7] inactive; negative | [8] inactive; negative | Test System: AMES SALMONELLA TYPHIMURIUM, Strain/Indicator: TA1537, Metabolic Activation: RAT, LIVER, S-9, SODIUM PHENOBARBITAL, Method: STANDARD PLATE inactive; negative | [9] inactive; negative | [10] inactive; negative | Test System: AMES SALMONELLA TYPHIMURIUM, Strain/Indicator: TA1538, Metabolic Activation: RAT, LIVER, S-9, SODIUM PHENOBARBITAL, Method: STANDARD PLATE inactive; negative

NC1c2ccccc2-c2ccccc21
inactive: Test System: AMES SALMONELLA TYPHIMURIUM, Strain/Indicator: TA98, Metabolic Activation: RAT, LIVER, S-9, AROCLOR 1254 (2 OR 4%), Method: STANDARD PLATE inactive; negative | Test System: AMES SALMONELLA TYPHIMURIUM, Strain/Indicator: TA100, Metabolic Activation: RAT, LIVER, S-9, AROCLOR 1254 (2%), Method: STANDARD PLATE inactive; negative | Test System: AMES SALMONELLA TYPHIMURIUM, Strain/Indicator: TA1535, Metabolic Activation: RAT, LIVER, S-9, AROCLOR 1254 (2%), Method: STANDARD PLATE inactive; negative | Test System: AMES SALMONELLA TYPHIMURIUM, Strain/Indicator: TA1537, Metabolic Activation: RAT, LIVER, S-9, AROCLOR 1254 (2%), Method: STANDARD PLATE inactive; negative

NCCCN
inactive: [11] inactive; negative | [12] inactive; negative | [13] inactive; negative | [14] inactive; negative | [15] inactive; negative | [16] inactive; negative | [17] inactive; negative | [18] inactive; negative | [19] inactive; negative | [20] inactive; negative | [21] inactive; negative | [22] inactive; negative

CCCCC/C=C\C/C=C\CCCCCCCC(=O)O
inactive: [11] inactive; negative | Test System: AMES SALMONELLA TYPHIMURIUM, Strain/Indicator: TA98, Metabolic Activation: HAMSTER, LIVER, S-9, AROCLOR 1254, Method: STANDARD PLATE inactive; negative | [12] inactive; negative | [1] inactive; negative | [13] inactive; negative | [2] inactive; negative | [14] inactive; negative | Test System: AMES SALMONELLA TYPHIMURIUM, Strain/Indicator: TA100, Metabolic Activation: HAMSTER, LIVER, S-9, AROCLOR 1254, Method: STANDARD PLATE inactive; negative | [15] inactive; negative | [3] inactive; negative | [16] inactive; negative | [4] inactive; negative | [17] inactive; negative | Test System: AMES SALMONELLA TYPHIMURIUM, Strain/Indicator: TA1535, Metabolic Activation: HAMSTER, LIVER, S-9, AROCLOR 1254, Method: STANDARD PLATE inactive; negative | [18] inactive; negative | [5] inactive; negative | [19] inactive; negative | [6] inactive; negative | [20] inactive; negative | Test System: AMES SALMONELLA TYPHIMURIUM, Strain/Indicator: TA1537, Metabolic Activation: HAMSTER, LIVER, S-9, AROCLOR 1254, Method: STANDARD PLATE inactive; negative | [21] inactive; negative | [7] inactive; negative | [22] inactive; negative | [8] inactive; negative | Test System: AMES SALMONELLA TYPHIMURIUM, Strain/Indicator: TA1538, Metabolic Activation: HAMSTER, LIVER, S-9, AROCLOR 1254, Method: STANDARD PLATE inactive; negative | [9] inactive; negative | [10] inactive; negative | Test System: MOUSE LYMPHOMA, Strain/Indicator: L5178Y (TK+/TK-), Metabolic Activation: NONE, Method: SUSPENSION/PLATE inactive; negative. reevaluation of results: negative | Test System: MOUSE LYMPHOMA, Strain/Indicator: L5178Y (TK+/TK-), Metabolic Activation: RAT, LIVER, S-9, AROCLOR 1254, Method: SUSPENSION/PLATE inactive; negative. reevaluation of results: negative

— PubChem BioAssay AID1259407 (Chemical Carcinogenesis Research Information System (CCRIS), 2018)
